Data reported in the supplement of paper PMC10307832.

What was measured:
Test in all cases: relative viability (nuclei count vs DMSO), 5 days (fraction); higher = more cells survive
Tosedostat + Crizotinib = compound: CC(C)C[C@@H](C(=O)N[C@H](C(=O)OC1CCCC1)c1ccccc1)[C@H](O)C(=O)NO [Tosedostat] + C[C@@H](Oc1cc(-c2cnn(C3CCNCC3)c2)cnc1N)c1c(Cl)ccc(F)c1Cl [Crizotinib] (partner 1 µM)
In short: (§1)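 After 5 days of treatment, lung cancer cells in 1536-well plates were fixed and stained in a single step (final 0.05% Triton X-100, 1% formaldehyde, 1 ug/ml Hoechst) and their nuclei counted on 4× images. Treatment had been applied by pin tool the day after seeding as one drug alone or as a fixed anchor-drug dose with five library-drug doses (not always all listed) in √10 steps. Relative viability is the nuclei count of treated wells divided by that of vehicle wells, and values are medians of duplicate plates.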

[1] = compound: CC1=NN=C(O1)C2=NN=C(C=C2)N3CCC(CC3)OC4=C(C=CC(=C4)F)Cl + CS(=O)(=O)N1CCN(Cc2cc3nc(-c4cccc5[nH]ncc45)nc(N4CCOCC4)c3s2)CC1 [Pictilisib] (partner 1 µM)
In short: as §1

Tosedostat + Linsitinib = compound: CC(C)C[C@@H](C(=O)N[C@H](C(=O)OC1CCCC1)c1ccccc1)[C@H](O)C(=O)NO [Tosedostat] + C[C@]1(O)C[C@@H](c2nc(-c3ccc4ccc(-c5ccccc5)nc4c3)c3c(N)nccn32)C1 [Linsitinib] (partner 1 µM)
In short: as §1

Tosedostat + Foretinib = compound: CC(C)C[C@@H](C(=O)N[C@H](C(=O)OC1CCCC1)c1ccccc1)[C@H](O)C(=O)NO [Tosedostat] + COc1cc2c(Oc3ccc(NC(=O)C4(C(=O)Nc5ccc(F)cc5)CC4)cc3F)ccnc2cc1OCCCN1CCOCC1 [Foretinib] (partner 0.25 µM)
In short: as §1

Work on NCI-H2087 yielded a relative viability (Tosedostat + Crizotinib; first compound 0.02 µM) of 0.832, a relative viability (Tosedostat + Crizotinib; first compound 0.06325 µM) of 0.823 and a relative viability (Tosedostat + Crizotinib; first compound 0.2 µM) of 0.643. For the same cell line, the relative viability (Tosedostat + Crizotinib; first compound 0.6325 µM) was 0.731, the relative viability (Tosedostat + Crizotinib; first compound 2 µM) was 0.716 and the relative viability ([1]; first compound 0.253 µM) was 0.769. It also gave a relative viability ([1]; first compound 0.8 µM) of 0.604, a relative viability ([1]; first compound 2.53 µM) of 0.795 and a relative viability ([1]; first compound 8 µM) of 0.66. The relative viability (Tosedostat + Linsitinib; first compound 0.02 µM) was 1, the relative viability (Tosedostat + Linsitinib; first compound 0.06325 µM) was 0.969 and the relative viability (Tosedostat + Linsitinib; first compound 0.2 µM) was 0.951. The relative viability (Tosedostat + Linsitinib; first compound 0.6325 µM) was 1, the relative viability (Tosedostat + Linsitinib; first compound 2 µM) was 0.886 and the relative viability (Tosedostat + Foretinib; first compound 0.02 µM) was 1.3. The relative viability (Tosedostat + Foretinib; first compound 0.06325 µM) was 1.13, the relative viability (Tosedostat + Foretinib; first compound 0.2 µM) was 1.06 and the relative viability (Tosedostat + Foretinib; first compound 0.6325 µM) was 0.98. The relative viability (Tosedostat + Foretinib; first compound 2 µM) was 0.941.
For NCI-H647, the relative viability (Tosedostat + Crizotinib; first compound 0.02 µM) was 1.25, the relative viability (Tosedostat + Crizotinib; first compound 0.06325 µM) was 1.04 and the relative viability (Tosedostat + Crizotinib; first compound 0.2 µM) was 0.831. The relative viability (Tosedostat + Crizotinib; first compound 0.6325 µM) was 0.957, the relative viability (Tosedostat + Crizotinib; first compound 2 µM) was 0.869 and the relative viability ([1]; first compound 0.253 µM) was 0.398. The relative viability ([1]; first compound 0.8 µM) was 0.552, the relative viability ([1]; first compound 2.53 µM) was 0.392 and the relative viability ([1]; first compound 8 µM) was 0.391. The relative viability (Tosedostat + Linsitinib; first compound 0.02 µM) was 1.07, the relative viability (Tosedostat + Linsitinib; first compound 0.06325 µM) was 1.2 and the relative viability (Tosedostat + Linsitinib; first compound 0.2 µM) was 1.01. It also gave a relative viability (Tosedostat + Linsitinib; first compound 0.6325 µM) of 1.12, a relative viability (Tosedostat + Linsitinib; first compound 2 µM) of 1.24 and a relative viability (Tosedostat + Foretinib; first compound 0.02 µM) of 1.36. The relative viability (Tosedostat + Foretinib; first compound 0.06325 µM) was 1.14, the relative viability (Tosedostat + Foretinib; first compound 0.2 µM) was 1.18 and the relative viability (Tosedostat + Foretinib; first compound 0.6325 µM) was 1.04. For the same cell line, the relative viability (Tosedostat + Foretinib; first compound 2 µM) was 1.17.
SW 1573 showed a relative viability (Tosedostat + Crizotinib; first compound 0.02 µM) of 0.711, a relative viability (Tosedostat + Crizotinib; first compound 0.06325 µM) of 0.868 and a relative viability (Tosedostat + Crizotinib; first compound 0.2 µM) of 0.637. For the same cell line, the relative viability (Tosedostat + Crizotinib; first compound 0.6325 µM) was 0.648, the relative viability (Tosedostat + Crizotinib; first compound 2 µM) was 0.713 and the relative viability ([1]; first compound 0.253 µM) was 0.527. It also gave a relative viability ([1]; first compound 0.8 µM) of 0.415, a relative viability ([1]; first compound 2.53 µM) of 0.473 and a relative viability ([1]; first compound 8 µM) of 0.383. For the same cell line, the relative viability (Tosedostat + Linsitinib; first compound 0.02 µM) was 0.828, the relative viability (Tosedostat + Linsitinib; first compound 0.06325 µM) was 0.973 and the relative viability (Tosedostat + Linsitinib; first compound 0.2 µM) was 0.826. It also gave a relative viability (Tosedostat + Linsitinib; first compound 0.6325 µM) of 0.841, a relative viability (Tosedostat + Linsitinib; first compound 2 µM) of 0.551 and a relative viability (Tosedostat + Foretinib; first compound 0.02 µM) of 0.877. It also gave a relative viability (Tosedostat + Foretinib; first compound 0.06325 µM) of 0.906, a relative viability (Tosedostat + Foretinib; first compound 0.2 µM) of 0.924 and a relative viability (Tosedostat + Foretinib; first compound 0.6325 µM) of 0.825. It also gave a relative viability (Tosedostat + Foretinib; first compound 2 µM) of 0.974.
HARA gave a relative viability (Tosedostat + Crizotinib; first compound 0.02 µM) of 1.12, a relative viability (Tosedostat + Crizotinib; first compound 0.06325 µM) of 0.912 and a relative viability (Tosedostat + Crizotinib; first compound 0.2 µM) of 0.991. It also gave a relative viability (Tosedostat + Crizotinib; first compound 0.6325 µM) of 0.997, a relative viability (Tosedostat + Crizotinib; first compound 2 µM) of 1.14 and a relative viability ([1]; first compound 0.253 µM) of 0.263. For the same cell line, the relative viability ([1]; first compound 0.8 µM) was 0.282, the relative viability ([1]; first compound 2.53 µM) was 0.336 and the relative viability ([1]; first compound 8 µM) was 0.191. For the same cell line, the relative viability (Tosedostat + Linsitinib; first compound 0.02 µM) was 0.915, the relative viability (Tosedostat + Linsitinib; first compound 0.06325 µM) was 0.8 and the relative viability (Tosedostat + Linsitinib; first compound 0.2 µM) was 0.876. The relative viability (Tosedostat + Linsitinib; first compound 0.6325 µM) was 0.969, the relative viability (Tosedostat + Linsitinib; first compound 2 µM) was 0.857 and the relative viability (Tosedostat + Foretinib; first compound 0.02 µM) was 0.941. For the same cell line, the relative viability (Tosedostat + Foretinib; first compound 0.06325 µM) was 0.914, the relative viability (Tosedostat + Foretinib; first compound 0.2 µM) was 0.852 and the relative viability (Tosedostat + Foretinib; first compound 0.6325 µM) was 0.813. For the same cell line, the relative viability (Tosedostat + Foretinib; first compound 2 µM) was 0.787.
For NCI-H2342, the relative viability (Tosedostat + Foretinib; first compound 0.02 µM) was 0.944, the relative viability (Tosedostat + Foretinib; first compound 0.06325 µM) was 1.01 and the relative viability (Tosedostat + Foretinib; first compound 0.2 µM) was 1.27. For the same cell line, the relative viability (Tosedostat + Foretinib; first compound 0.6325 µM) was 0.924 and the relative viability (Tosedostat + Foretinib; first compound 2 µM) was 0.89.
Cell Line ChaGo-K-1 has a relative viability (Tosedostat + Crizotinib; first compound 0.02 µM) of 1.05, a relative viability (Tosedostat + Crizotinib; first compound 0.06325 µM) of 1.03 and a relative viability (Tosedostat + Crizotinib; first compound 0.2 µM) of 1.14. For the same cell line, the relative viability (Tosedostat + Crizotinib; first compound 0.6325 µM) was 1.01, the relative viability (Tosedostat + Crizotinib; first compound 2 µM) was 0.84 and the relative viability ([1]; first compound 0.253 µM) was 0.633. The relative viability ([1]; first compound 0.8 µM) was 0.681, the relative viability ([1]; first compound 2.53 µM) was 0.508 and the relative viability ([1]; first compound 8 µM) was 0.548. For the same cell line, the relative viability (Tosedostat + Foretinib; first compound 0.02 µM) was 0.911, the relative viability (Tosedostat + Foretinib; first compound 0.06325 µM) was 0.934 and the relative viability (Tosedostat + Foretinib; first compound 0.2 µM) was 0.976. The relative viability (Tosedostat + Foretinib; first compound 0.6325 µM) was 0.833 and the relative viability (Tosedostat + Foretinib; first compound 2 µM) was 0.709.
HCC-44 showed a relative viability (Tosedostat + Crizotinib; first compound 0.02 µM) of 0.861, a relative viability (Tosedostat + Crizotinib; first compound 0.06325 µM) of 0.755 and a relative viability (Tosedostat + Crizotinib; first compound 0.2 µM) of 0.759. For the same cell line, the relative viability (Tosedostat + Crizotinib; first compound 0.6325 µM) was 0.741, the relative viability (Tosedostat + Crizotinib; first compound 2 µM) was 0.492 and the relative viability ([1]; first compound 0.253 µM) was 0.42. The relative viability ([1]; first compound 0.8 µM) was 0.444, the relative viability ([1]; first compound 2.53 µM) was 0.578 and the relative viability ([1]; first compound 8 µM) was 0.472. For the same cell line, the relative viability (Tosedostat + Linsitinib; first compound 0.02 µM) was 0.59, the relative viability (Tosedostat + Linsitinib; first compound 0.06325 µM) was 0.656 and the relative viability (Tosedostat + Linsitinib; first compound 0.2 µM) was 0.688. It also gave a relative viability (Tosedostat + Linsitinib; first compound 0.6325 µM) of 0.681 and a relative viability (Tosedostat + Linsitinib; first compound 2 µM) of 0.473.
NCI-H1793 was tested, and the relative viability ([1]; first compound 0.253 µM) was 0.307, the relative viability ([1]; first compound 0.8 µM) was 0.312 and the relative viability ([1]; first compound 2.53 µM) was 0.31. The relative viability ([1]; first compound 8 µM) was 0.347, the relative viability (Tosedostat + Linsitinib; first compound 0.02 µM) was 0.678 and the relative viability (Tosedostat + Linsitinib; first compound 0.06325 µM) was 0.984. The relative viability (Tosedostat + Linsitinib; first compound 0.2 µM) was 0.711, the relative viability (Tosedostat + Linsitinib; first compound 0.6325 µM) was 0.641 and the relative viability (Tosedostat + Linsitinib; first compound 2 µM) was 0.873. For the same cell line, the relative viability (Tosedostat + Foretinib; first compound 0.02 µM) was 0.559, the relative viability (Tosedostat + Foretinib; first compound 0.06325 µM) was 0.789 and the relative viability (Tosedostat + Foretinib; first compound 0.2 µM) was 0.742. The relative viability (Tosedostat + Foretinib; first compound 0.6325 µM) was 0.629 and the relative viability (Tosedostat + Foretinib; first compound 2 µM) was 0.637.
NCI-H1395 was tested, and the relative viability ([1]; first compound 0.253 µM) was 0.565, the relative viability ([1]; first compound 0.8 µM) was 0.597 and the relative viability ([1]; first compound 2.53 µM) was 0.567. It also gave a relative viability ([1]; first compound 8 µM) of 0.549, a relative viability (Tosedostat + Linsitinib; first compound 0.02 µM) of 0.993 and a relative viability (Tosedostat + Linsitinib; first compound 0.06325 µM) of 0.944. For the same cell line, the relative viability (Tosedostat + Linsitinib; first compound 0.2 µM) was 1.03, the relative viability (Tosedostat + Linsitinib; first compound 0.6325 µM) was 0.821 and the relative viability (Tosedostat + Linsitinib; first compound 2 µM) was 0.782. For the same cell line, the relative viability (Tosedostat + Foretinib; first compound 0.02 µM) was 0.917, the relative viability (Tosedostat + Foretinib; first compound 0.06325 µM) was 1.05 and the relative viability (Tosedostat + Foretinib; first compound 0.2 µM) was 0.952. It also gave a relative viability (Tosedostat + Foretinib; first compound 0.6325 µM) of 0.918 and a relative viability (Tosedostat + Foretinib; first compound 2 µM) of 0.871.
SW 900 showed a relative viability (Tosedostat + Foretinib; first compound 0.02 µM) of 0.854, a relative viability (Tosedostat + Foretinib; first compound 0.06325 µM) of 0.904 and a relative viability (Tosedostat + Foretinib; first compound 0.2 µM) of 0.709. It also gave a relative viability (Tosedostat + Foretinib; first compound 0.6325 µM) of 0.765 and a relative viability (Tosedostat + Foretinib; first compound 2 µM) of 0.61.
NCI-H1792 was tested, and the relative viability (Tosedostat + Crizotinib; first compound 0.02 µM) was 1, the relative viability (Tosedostat + Crizotinib; first compound 0.06325 µM) was 0.991 and the relative viability (Tosedostat + Crizotinib; first compound 0.2 µM) was 1.04. The relative viability (Tosedostat + Crizotinib; first compound 0.6325 µM) was 0.963, the relative viability (Tosedostat + Crizotinib; first compound 2 µM) was 1.03 and the relative viability ([1]; first compound 0.253 µM) was 0.205. The relative viability ([1]; first compound 0.8 µM) was 0.314, the relative viability ([1]; first compound 2.53 µM) was 0.375 and the relative viability ([1]; first compound 8 µM) was 0.411. The relative viability (Tosedostat + Linsitinib; first compound 0.02 µM) was 0.553, the relative viability (Tosedostat + Linsitinib; first compound 0.06325 µM) was 0.578 and the relative viability (Tosedostat + Linsitinib; first compound 0.2 µM) was 0.496. For the same cell line, the relative viability (Tosedostat + Linsitinib; first compound 0.6325 µM) was 0.548 and the relative viability (Tosedostat + Linsitinib; first compound 2 µM) was 0.636.
